The record followed here is the Kinase Knowledgebase extract (Sharma et al. 2016).

In one assay the target is PIK3CB (Human) (UniProt P42338). Description: Inhibition of PIK3CB Kinase Activity.
Another assay deals with PIK3CG (human) (UniProt P48736). The assay is described as follows: Inhibition of PIK3CG Kinase Activity.
For a further assay, the target named is PIK3CD (Human) (UniProt O00329). The assay is described as follows: Inhibition of PIK3CD Kinase Activity.
The target of a further assay is PIK3CA (human) (UniProt P42336). Description: Inhibition of PIK3CA Kinase Activity.

For orientation: IC50 means the point on the concentration scale where inhibition reaches its midpoint. A higher IC50 goes with a need for much substance.

Sequence of PIK3CG (human) (P48736 whole entry, looked up): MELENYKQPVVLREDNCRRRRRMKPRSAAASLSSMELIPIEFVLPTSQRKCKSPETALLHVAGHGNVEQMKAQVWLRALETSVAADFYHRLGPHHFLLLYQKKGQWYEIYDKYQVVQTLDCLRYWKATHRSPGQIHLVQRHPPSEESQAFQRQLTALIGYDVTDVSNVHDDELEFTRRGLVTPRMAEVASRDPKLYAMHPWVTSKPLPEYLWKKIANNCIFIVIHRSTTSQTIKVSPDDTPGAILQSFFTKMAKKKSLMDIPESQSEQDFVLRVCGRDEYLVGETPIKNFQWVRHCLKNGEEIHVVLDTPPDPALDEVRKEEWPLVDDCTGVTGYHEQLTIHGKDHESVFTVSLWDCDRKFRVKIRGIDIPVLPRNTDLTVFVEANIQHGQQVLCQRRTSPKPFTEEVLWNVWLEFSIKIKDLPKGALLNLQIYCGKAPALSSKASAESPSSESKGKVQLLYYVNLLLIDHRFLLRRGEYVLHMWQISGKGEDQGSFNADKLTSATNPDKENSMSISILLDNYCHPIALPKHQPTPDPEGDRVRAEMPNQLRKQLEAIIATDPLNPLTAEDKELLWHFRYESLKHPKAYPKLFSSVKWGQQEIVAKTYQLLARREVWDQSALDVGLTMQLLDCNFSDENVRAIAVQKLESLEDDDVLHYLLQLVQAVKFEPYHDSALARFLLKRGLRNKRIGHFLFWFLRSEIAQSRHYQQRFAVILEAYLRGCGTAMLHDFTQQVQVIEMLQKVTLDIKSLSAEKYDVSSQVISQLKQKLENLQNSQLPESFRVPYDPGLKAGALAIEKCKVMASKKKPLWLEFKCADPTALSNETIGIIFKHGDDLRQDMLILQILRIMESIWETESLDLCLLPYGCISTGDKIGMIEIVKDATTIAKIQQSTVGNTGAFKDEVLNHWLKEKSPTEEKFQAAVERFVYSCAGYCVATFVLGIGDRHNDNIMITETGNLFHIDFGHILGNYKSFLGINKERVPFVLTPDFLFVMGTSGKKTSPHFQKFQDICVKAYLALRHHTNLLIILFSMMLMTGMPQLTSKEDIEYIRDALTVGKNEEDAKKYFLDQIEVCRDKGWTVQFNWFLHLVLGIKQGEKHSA
Sequence of PIK3CA (human) (P42336 whole entry, looked up): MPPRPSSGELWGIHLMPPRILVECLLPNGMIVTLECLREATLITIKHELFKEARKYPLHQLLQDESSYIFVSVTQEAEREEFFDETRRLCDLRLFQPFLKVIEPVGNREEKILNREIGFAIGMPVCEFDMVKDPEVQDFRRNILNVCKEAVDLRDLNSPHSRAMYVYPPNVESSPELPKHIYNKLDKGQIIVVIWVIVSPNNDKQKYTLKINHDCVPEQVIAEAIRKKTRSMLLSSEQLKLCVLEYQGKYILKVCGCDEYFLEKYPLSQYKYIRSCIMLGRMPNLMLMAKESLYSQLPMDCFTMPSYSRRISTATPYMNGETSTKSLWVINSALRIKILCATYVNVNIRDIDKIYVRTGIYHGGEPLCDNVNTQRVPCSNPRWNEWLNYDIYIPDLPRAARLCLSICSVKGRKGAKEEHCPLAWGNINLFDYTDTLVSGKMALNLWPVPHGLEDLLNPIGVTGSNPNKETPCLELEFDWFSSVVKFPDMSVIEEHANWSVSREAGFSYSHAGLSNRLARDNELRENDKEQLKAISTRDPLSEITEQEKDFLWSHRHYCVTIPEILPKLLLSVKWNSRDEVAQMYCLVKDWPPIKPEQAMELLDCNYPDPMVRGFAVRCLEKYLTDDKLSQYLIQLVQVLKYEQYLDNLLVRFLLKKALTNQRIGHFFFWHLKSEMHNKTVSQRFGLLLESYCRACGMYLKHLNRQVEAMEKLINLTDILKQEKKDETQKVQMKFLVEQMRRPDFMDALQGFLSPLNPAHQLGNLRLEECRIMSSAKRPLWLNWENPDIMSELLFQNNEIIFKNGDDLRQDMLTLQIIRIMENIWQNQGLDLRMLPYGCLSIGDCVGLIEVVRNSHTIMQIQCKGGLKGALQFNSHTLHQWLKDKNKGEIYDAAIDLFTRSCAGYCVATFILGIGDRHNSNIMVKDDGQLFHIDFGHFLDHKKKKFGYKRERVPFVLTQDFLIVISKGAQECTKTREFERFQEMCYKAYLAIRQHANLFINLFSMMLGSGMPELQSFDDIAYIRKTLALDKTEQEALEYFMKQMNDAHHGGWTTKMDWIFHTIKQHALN
Sequence of PIK3CD (Human) (O00329 whole entry, looked up): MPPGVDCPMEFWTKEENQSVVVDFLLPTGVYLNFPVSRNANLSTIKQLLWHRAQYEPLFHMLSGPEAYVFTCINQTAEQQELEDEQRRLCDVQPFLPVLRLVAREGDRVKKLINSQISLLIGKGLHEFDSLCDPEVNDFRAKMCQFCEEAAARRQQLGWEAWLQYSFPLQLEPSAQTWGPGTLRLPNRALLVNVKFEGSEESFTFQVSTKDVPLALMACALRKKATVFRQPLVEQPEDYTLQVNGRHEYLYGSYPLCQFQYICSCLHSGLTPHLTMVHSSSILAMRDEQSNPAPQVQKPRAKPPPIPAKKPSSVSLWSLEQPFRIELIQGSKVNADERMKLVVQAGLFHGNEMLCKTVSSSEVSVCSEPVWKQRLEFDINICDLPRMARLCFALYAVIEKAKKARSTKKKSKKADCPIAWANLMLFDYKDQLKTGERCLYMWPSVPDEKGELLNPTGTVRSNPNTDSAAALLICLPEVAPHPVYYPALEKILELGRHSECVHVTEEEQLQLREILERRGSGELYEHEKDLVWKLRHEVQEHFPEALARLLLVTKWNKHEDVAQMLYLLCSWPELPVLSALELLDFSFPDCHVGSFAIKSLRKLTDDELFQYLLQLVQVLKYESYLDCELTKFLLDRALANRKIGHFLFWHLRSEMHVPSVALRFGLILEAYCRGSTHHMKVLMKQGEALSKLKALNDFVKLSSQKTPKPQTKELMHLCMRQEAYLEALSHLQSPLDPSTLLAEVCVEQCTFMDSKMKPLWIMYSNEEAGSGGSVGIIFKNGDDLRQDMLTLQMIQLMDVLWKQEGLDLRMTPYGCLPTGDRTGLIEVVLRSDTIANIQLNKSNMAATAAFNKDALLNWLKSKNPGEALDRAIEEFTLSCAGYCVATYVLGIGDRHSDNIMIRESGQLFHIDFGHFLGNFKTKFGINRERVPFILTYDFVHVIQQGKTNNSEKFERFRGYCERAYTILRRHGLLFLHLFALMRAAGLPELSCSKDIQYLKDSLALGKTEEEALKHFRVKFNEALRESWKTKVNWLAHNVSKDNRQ
Sequence of PIK3CB (Human) (P42338 whole entry, looked up): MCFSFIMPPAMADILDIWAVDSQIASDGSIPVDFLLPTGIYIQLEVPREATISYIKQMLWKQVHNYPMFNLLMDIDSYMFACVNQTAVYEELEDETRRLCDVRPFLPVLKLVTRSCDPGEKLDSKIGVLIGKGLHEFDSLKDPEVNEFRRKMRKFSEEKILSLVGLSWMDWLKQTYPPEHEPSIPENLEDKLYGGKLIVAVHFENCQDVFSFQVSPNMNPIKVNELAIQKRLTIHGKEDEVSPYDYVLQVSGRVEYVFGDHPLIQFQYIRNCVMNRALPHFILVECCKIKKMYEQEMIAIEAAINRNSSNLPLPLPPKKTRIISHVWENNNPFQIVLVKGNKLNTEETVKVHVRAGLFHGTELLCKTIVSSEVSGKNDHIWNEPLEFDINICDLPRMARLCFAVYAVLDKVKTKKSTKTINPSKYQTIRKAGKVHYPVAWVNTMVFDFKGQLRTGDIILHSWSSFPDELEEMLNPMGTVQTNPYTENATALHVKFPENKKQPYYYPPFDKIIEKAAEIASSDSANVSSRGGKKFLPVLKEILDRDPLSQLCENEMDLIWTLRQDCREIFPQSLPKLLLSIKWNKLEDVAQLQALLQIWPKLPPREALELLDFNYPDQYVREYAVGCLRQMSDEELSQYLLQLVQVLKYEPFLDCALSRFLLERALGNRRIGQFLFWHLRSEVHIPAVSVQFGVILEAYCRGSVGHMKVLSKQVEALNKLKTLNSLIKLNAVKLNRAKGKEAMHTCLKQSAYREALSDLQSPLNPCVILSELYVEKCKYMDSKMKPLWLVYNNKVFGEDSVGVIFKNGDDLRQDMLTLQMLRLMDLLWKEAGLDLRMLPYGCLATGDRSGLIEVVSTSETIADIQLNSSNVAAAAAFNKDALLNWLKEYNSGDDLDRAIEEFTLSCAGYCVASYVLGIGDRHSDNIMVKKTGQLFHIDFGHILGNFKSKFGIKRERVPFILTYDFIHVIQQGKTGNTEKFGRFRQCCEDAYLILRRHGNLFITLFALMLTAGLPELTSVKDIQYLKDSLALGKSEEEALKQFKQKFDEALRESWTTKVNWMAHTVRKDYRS

For the molecule `CNS(=O)(=O)c1cncc(-c2ccn3nc(N)nc3c2)c1`, the IC50 was 100 to 1000 nM against PIK3CB (Human), less than 100 nM against PIK3CG (human) and 100 to 1000 nM on PIK3CD (Human).
On to `CC(C)(C)NS(=O)(=O)c1cncc(-c2ccn3nc(N)nc3c2)c1`, for which the half-inhibitory concentration (IC50) was 100 to 1000 nM against PIK3CB (Human), less than 100 nM on PIK3CG (human), 100 to 1000 nM at PIK3CD (Human) and 100 to 1000 nM against PIK3CA (human).
Regarding `Nc1nc2cc(-c3cccnc3)ccn2n1`, the IC50 at PIK3CG (human) is 100 to 1000 nM.
As for `CS(=O)(=O)c1cncc(-c2ccn3nc(N)nc3c2)c1`, the half-inhibitory concentration (IC50) at PIK3CG (human) is less than 100 nM.
On to `Nc1nc2cc(-c3cncc(S(=O)(=O)Nc4ccccc4)c3)ccn2n1`, for which the results for the 50% inhibitory concentration (IC50) at PIK3CG (human) and against PIK3CA (human) were less than 100 nM and 100 to 1000 nM, respectively.
As to `CC(C)(C)NS(=O)(=O)c1cncc(-c2cc(F)n3nc(N)nc3c2)c1`, the 50% inhibitory concentration (IC50) was 100 to 1000 nM against PIK3CB (Human) and less than 100 nM at PIK3CG (human).
Take `CCNS(=O)(=O)c1cncc(-c2ccn3nc(N)nc3c2)c1`: the IC50 on PIK3CB (Human) was 100 to 1000 nM; against PIK3CG (human) it was less than 100 nM; at PIK3CD (Human), 100 to 1000 nM.
For `Nc1nc2cc(-c3cncc(S(=O)(=O)N4CCC4)c3)ccn2n1`, on PIK3CG (human), the IC50 is less than 100 nM.
Take `Nc1nc2cc(-c3cncc(S(N)(=O)=O)c3)ccn2n1`: the half-maximal inhibitory concentration (IC50) was 100 to 1000 nM on PIK3CB (Human), less than 100 nM against PIK3CG (human) and 100 to 1000 nM against PIK3CD (Human).
As for `Nc1nc2cc(-c3cncc(C(F)(F)F)c3)ccn2n1`, on PIK3CG (human), the IC50 lay within 100 to 1000 nM.
As to `CCN(CC)S(=O)(=O)c1cncc(-c2ccn3nc(N)nc3c2)c1`, the values for the IC50 on PIK3CB (Human), against PIK3CG (human) and against PIK3CD (Human) were 100 to 1000 nM, less than 100 nM and 100 to 1000 nM, respectively.
Take `CC(C)(NS(=O)(=O)c1cncc(-c2ccn3nc(N)nc3c2)c1)C(F)(F)F`: the results for the 50% inhibitory concentration (IC50) against PIK3CB (Human), on PIK3CG (human) and against PIK3CD (Human) were 100 to 1000 nM, less than 100 nM and 100 to 1000 nM, respectively.
As to `Nc1nc2cc(-c3cncc(S(=O)(=O)NC4CC4)c3)ccn2n1`, the figures for the half-inhibitory concentration (IC50) on PIK3CB (Human), at PIK3CG (human) and against PIK3CD (Human) were 100 to 1000 nM, less than 100 nM and 100 to 1000 nM, respectively.
For the molecule `COc1ccc(-c2ccn3nc(N)nc3c2)cc1OC`, the IC50 against PIK3CG (human) is less than 100 nM; against PIK3CD (Human), 100 to 1000 nM; on PIK3CA (human), 100 to 1000 nM.
On to `CCN(C)S(=O)(=O)c1cncc(-c2ccn3nc(N)nc3c2)c1`, for which the IC50 was less than 100 nM against PIK3CG (human), 100 to 1000 nM on PIK3CD (Human) and 100 to 1000 nM against PIK3CA (human).
Consider `CC(C)NS(=O)(=O)c1cncc(-c2ccn3nc(N)nc3c2)c1`, for which the IC50 on PIK3CB (Human) was 100 to 1000 nM; against PIK3CG (human) it was less than 100 nM; on PIK3CD (Human) it was 100 to 1000 nM.
For `CCCCNS(=O)(=O)c1cccc(-c2ccn3nc(N)nc3c2)c1`, the IC50 at PIK3CG (human) lay within 100 to 1000 nM.
Turning to `Nc1nc2cc(-c3cncc(S(=O)(=O)NCC(F)(F)F)c3)ccn2n1`, at PIK3CG (human), the half-inhibitory concentration (IC50) was less than 100 nM.
On to `Nc1nc2cc(-c3cncc(S(=O)(=O)NCc4ccccc4)c3)ccn2n1`, for which, on PIK3CG (human), the 50% inhibitory concentration (IC50) was less than 100 nM.
Same read-out and setting: under `CCCNS(=O)(=O)c1cncc(-c2ccn3nc(N)nc3c2)c1` stands less than 100 nM; under `CS(=O)(=O)c1cccc(-c2ccn3nc(N)nc3c2)c1`, 100 to 1000 nM.
